Key:
OCI-LY3 cell line = assay: OCI-LY3 cell proliferation inhibition (CTG); format: cell-based; details: Homo sapiens, incubated for 72 hours
Procedure: The tumor cell line used in this experiment was provided by Nanjing Cobioer Biotechnology Co., Ltd. See Table 13 below for specific information.
The tumor cell lines OCI-LY3 were used to detect the effect of the compound on inhibiting tumor cell proliferation in vitro. The OCI-LY3 cell line was cultured in the corresponding medium at 37° C. and 5% CO2, and the logarithmic growth phase cells were used in the experimental plating. The cells were collected and centrifuged at 800 rpm for 5 minutes, and the culture medium was re-suspended and spread in a 96-well plate. After incubating overnight in a 37° C., 5% CO2 incubator, the cells with different concentration gradients (10 μL of prepared diluent of the tested compound) were incubated for 72 hours, and the cell culture plates were incubated with CTG reagent at room temperature and away from light for 30 minutes, and then recovered to room temperature. 100 μL/hole of CTG solution was added into the biosafety cabinet away from light, and the plate shaker was shaken and mixed evenly away from light for 2 minutes, and incubated at room temperature away from light for 10 minutes. The luminescence values were read and recorded using the Perkin Elmer Envision 2104 MuLtilabel Reader.
The results of luminescence values measured at each drug concentration were normalized with the luminescence values of the blank control group, and the ratio of this value to the DMSO group was taken as the cell inhibition rate (%). Using GraphPad software, the logarithm of drug concentration (log drug concentration) versus inhibition rate was plotted, and the software automatically fitted and calculated IC50 value and 95% confidence limit value by log (inhibitor) vs. normalized response algorithm of nonlinear regression.

[1] = tested on: human B-cell lymphoma OCI-LY10 cell subcutaneous xenograft tumor; assay: Human B-cell lymphoma OCI-LY10 cell subcutaneous xenograft tumor mouse model; format: in vivo
Procedure: The objective of the experiment was to study the efficacy of WX001 as the test drug on human B-cell lymphoma OCI-LY10 cell subcutaneous xenograft tumor in CB17 SCID mouse model.
OCI-LY10 human B-cell lymphoma cells were cultured in a 37° C., 5% CO2 incubator.
OCI-LY10 tumor cells were cultured and passaged, and 0.2 mL (1×10^7 cells) OCI-LY10 cells were subcutaneously inoculated on the right back of each […] (with Matrigel, volume ratio 1:1), and the group administration was started when the average tumor volume reached 167 mm^3. The health status and death of animals were monitored every day, and routine examinations included observing the effects of tumor growth and drug treatment on daily behaviors of animals, such as behavioral activities, food intake and water intake, weight change (weight was measured twice a week), tumor size (tumor volume was measured twice a week), appearance signs or other abnormal conditions.
The experimental index was to investigate whether the tumor growth was inhibited, delayed or cured. Including the measurement of tumor volume (TV), and the calculation of the compound's anti-tumor efficacy using TGI (%) or the relative tumor proliferation rate T/C (%).
TV=0.5a×b^2, a and b represented the long diameter and short diameter of the tumor, respectively.
T/C %=TRTV/CRTV×100% (TRTV: RTV in treatment group; CRTV: RTV in negative control group). Relative tumor volume (RTV) was calculated according to the results of tumor measurement, and the calculation formula was RTV=Vt/V0, wherein V0 was the average tumor volume measured at the time of group administration (i.e., d0), Vt was the average tumor volume at a certain measurement, and TRTV and CRTV were the data taken at the same day.

human IRAK4 = target: T1, human IRAK4 (Homo sapiens, UniProt Q9NWZ3); assay: In vitro IRAK4 kinase activity, 33P isotope-labeled kinase activity assay (Reaction Biology Corp); format: biochemical; details: 33P-ATP, 120 minutes at room temperature; read-out: IRAK4/IC50
T1 construct: purchased Reaction Biology Corp
T1 sequence (Q9NWZ3 1-460): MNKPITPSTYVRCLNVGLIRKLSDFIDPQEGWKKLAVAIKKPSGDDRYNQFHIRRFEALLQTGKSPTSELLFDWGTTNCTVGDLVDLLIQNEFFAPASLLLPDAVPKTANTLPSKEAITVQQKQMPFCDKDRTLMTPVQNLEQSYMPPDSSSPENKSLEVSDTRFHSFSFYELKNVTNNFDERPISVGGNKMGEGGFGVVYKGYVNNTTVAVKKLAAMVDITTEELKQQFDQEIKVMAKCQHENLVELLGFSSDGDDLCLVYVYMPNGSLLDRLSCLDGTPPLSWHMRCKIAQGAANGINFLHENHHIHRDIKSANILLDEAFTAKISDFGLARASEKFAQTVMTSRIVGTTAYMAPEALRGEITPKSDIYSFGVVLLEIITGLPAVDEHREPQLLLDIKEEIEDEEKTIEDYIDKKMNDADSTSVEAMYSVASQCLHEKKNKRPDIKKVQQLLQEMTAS
Procedure: The IC50 values were determined using ^33P isotope-labeled kinase activity assay (Reaction Biology Corp) to evaluate the inhibitory ability of the tested compounds on human IRAK4.
(§1) Buffer conditions: 20 mM Hepes (pH 7.5), 10 mM MgCl2, 1 mM EGTA, 0.02% Brij35, 0.02 mg/mL BSA, 0.1 mM Na3VO4, 2 mM DTT, 1% DMSO.
Test procedure: At room temperature, the tested compound was dissolved in DMSO to prepare a 10 mM solution for later use. The substrate was dissolved in a newly prepared buffer solution, and the tested IRAK4 kinase was added thereto and mixed evenly. The DMSO solution dissolved with the tested compound was added to the above reaction mixture mixed evenly using acoustic technique (Echo 550). After incubation for 15 minutes, ^33P-ATP was added to initiate the reaction.

human BTK = target: T2, human BTK (Homo sapiens, UniProt Q06187); assay: In vitro BTK kinase activity, 33P isotope-labeled kinase activity assay (Reaction Biology Corp); format: biochemical; details: 33P-ATP, 2 hours at room temperature
T2 construct: purchased Reaction Biology Corp
T2 sequence (Q06187 whole entry): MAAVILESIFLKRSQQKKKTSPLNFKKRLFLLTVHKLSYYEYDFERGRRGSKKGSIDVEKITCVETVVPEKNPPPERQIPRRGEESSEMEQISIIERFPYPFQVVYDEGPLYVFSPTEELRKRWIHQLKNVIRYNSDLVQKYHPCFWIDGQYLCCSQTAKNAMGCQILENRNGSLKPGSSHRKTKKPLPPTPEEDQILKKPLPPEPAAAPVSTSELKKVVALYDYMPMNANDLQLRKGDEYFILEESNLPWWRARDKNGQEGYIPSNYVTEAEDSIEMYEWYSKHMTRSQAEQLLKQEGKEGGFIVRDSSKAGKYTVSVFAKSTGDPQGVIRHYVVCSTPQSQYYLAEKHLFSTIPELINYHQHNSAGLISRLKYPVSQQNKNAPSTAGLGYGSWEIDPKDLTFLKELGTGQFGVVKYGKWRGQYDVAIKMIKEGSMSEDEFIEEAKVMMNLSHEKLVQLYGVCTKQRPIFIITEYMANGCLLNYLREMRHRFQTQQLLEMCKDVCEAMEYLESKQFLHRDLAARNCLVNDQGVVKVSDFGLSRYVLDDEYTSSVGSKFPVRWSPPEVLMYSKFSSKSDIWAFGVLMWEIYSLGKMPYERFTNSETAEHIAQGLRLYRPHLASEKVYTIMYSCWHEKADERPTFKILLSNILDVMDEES
Procedure: The IC50 values were determined using ^33P isotope-labeled kinase activity assay (Reaction Biology Corp) to evaluate the inhibitory ability of the tested compounds on human BTK.
as §1
Test procedure: At room temperature, the tested compound was dissolved in DMSO to prepare a 10 mM solution for later use. The substrate was dissolved in a newly prepared buffer solution, and the tested BTK kinase was added thereto and mixed evenly. The compound dissolved in DMSO was added to the kinase reaction mixture through Echo 550 (Acoustic technology; Nanoliter range). After incubation for 20 minutes at room temperature, ^33P-ATP was added to initiate the reaction. The reaction was carried out at room temperature for 2 hours, and the radioactivity of the reaction liquid point was detected by filtration-binding method with P81 ion exchange filter paper. The kinase activity data were expressed by comparing the kinase activity of the group containing the tested compound with the kinase activity of the blank group (only containing DMSO), and the IC50 value was obtained by curve fitting by Prism4 software (GraphPad), the experimental results are shown in Table 10.

[2] = 50 mpk, 18 days after the start of administration, p<0.001

Cc1cc(-c2nc(C(=O)Nc3cn4cc(CCC(C)(C)O)nc4cc3N3CCCCC3)co2)ccn1 [WX001]
IC50 (OCI-LY3 cell line): 1290 nM | anti-tumor effect compared with the solvent control group ([1]; 50 mpk, 18 days): significant anti-tumor effect | T/C value [1, 2]: 22% | TGI value [1, 2]: 109% | drug tolerance (body weight, abnormality) ([1]; OCI-LY10 xenograft mice, 18 days of administration): well tolerated | IC50 (human IRAK4): 1 nM | IC50 (human BTK): 6.7 nM
